Measurements from patent US10174044B2, “Fused pyridines as kinase inhibitors” (BRISTOL-MYERS SQUIBB COMPANY, priority 2015, dated 2019).

Target: GST-Xa-hAAK1 (Homo sapiens (Human), UniProt Q2M2I8)
Assay: AAK1 Kinase Assay
Assay type: biochemical
Details: bacterially expressed GST-Xa-hAAK1 3.5 nM; ATP 22 μM; fluoresceinated peptide substrate 1.5 μM; 3 hours at room temperature
Description: The assays were performed in U-bottom 384-well plates. […] The reactions were initiated by the combination of bacterially expressed, GST-Xa-hAAK1 with substrates and test compounds. The reactions were incubated at room temperature for 3 hours and terminated by adding 60 μl of 35 mM EDTA buffer to each sample. The reactions were analyzed on the Caliper LabChip 3000 (Caliper, Hopkinton, Mass.) by electrophoretic separation of the fluorescent substrate and phosphorylated product. […] Compounds were dissolved at 10 mM in dimethylsulfoxide (DMSO) and evaluated at eleven concentrations. IC50 values were derived by non-linear regression analysis.

Sequence of GST-Xa-hAAK1 (Q2M2I8 whole entry): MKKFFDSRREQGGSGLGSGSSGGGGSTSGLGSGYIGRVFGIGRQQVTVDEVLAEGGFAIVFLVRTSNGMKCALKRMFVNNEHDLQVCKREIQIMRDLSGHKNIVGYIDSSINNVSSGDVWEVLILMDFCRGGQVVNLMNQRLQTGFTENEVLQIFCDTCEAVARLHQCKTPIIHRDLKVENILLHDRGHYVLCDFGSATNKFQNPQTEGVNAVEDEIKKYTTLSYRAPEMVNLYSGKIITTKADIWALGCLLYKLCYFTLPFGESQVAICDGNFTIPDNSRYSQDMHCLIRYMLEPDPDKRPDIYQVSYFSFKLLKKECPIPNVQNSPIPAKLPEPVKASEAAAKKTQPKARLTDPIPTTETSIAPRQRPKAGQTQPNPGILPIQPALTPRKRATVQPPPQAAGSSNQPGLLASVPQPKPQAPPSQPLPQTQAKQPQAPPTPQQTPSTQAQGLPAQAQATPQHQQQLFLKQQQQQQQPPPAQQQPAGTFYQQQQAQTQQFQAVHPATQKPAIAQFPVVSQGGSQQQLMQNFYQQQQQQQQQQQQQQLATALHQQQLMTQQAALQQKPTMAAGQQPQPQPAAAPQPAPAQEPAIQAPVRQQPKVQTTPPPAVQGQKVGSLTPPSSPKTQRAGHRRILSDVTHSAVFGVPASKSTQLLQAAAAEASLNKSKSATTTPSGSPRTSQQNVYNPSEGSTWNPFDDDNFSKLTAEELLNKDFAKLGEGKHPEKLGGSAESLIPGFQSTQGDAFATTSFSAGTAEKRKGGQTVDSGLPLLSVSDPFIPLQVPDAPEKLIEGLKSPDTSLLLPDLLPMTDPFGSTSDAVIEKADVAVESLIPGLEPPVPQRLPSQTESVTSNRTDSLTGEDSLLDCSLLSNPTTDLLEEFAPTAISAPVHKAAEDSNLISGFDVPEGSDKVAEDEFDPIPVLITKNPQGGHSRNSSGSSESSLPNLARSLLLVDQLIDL

Compound | IC50
CCn1c(=O)c2cc(OC[C@@](C)(N)CC(C)C)ccc2c2ccnc(C)c21 [Example 19, (S)-8-((2-amino-2,4-dimethylpentyl)oxy)-5-ethyl-4-methylbenzo[c][1,7]naphthyridin-6(5H)-one] | 1340 nM
Cc1nccc2c3ccc(OC[C@@](C)(N)CC(C)C)cc3c(=O)n(CCO)c12 [Example 21, (S)-8-((2-amino-2,4-dimethylpentyl)oxy)-5-(2-hydroxyethyl)-4-methylbenzo[c][1,7]naphthyridin-6(5H)-one] | 1130 nM
[2H]C([2H])([2H])n1c(=O)c2cc(OC[C@@](C)(N)CC(C)C)ccc2c2ccnc(C)c21 [Example 23, (S)-8-((2-amino-2,4-dimethylpentyl)oxy)-4-methyl-5-(trideuteromethyl)benzo[c][1,7]naphthyridin-6(5H)-one] | 46 nM
Cc1nccc2c3cc(C#N)c(OC[C@@](C)(N)CC(C)C)cc3c(=O)n(C3CC3)c12 [Example 24, (S)-8-((2-amino-2,4-dimethylpentyl)oxy)-5-cyclopropyl-4-methyl-6-oxo-5,6-dihydrobenzo[c][1,7]naphthyridine-9-carbonitrile] | 69 nM
Cc1nccc2c3cc(Cl)c(OC[C@@](C)(N)CC(C)C)cc3c(=O)n(C(C)C)c12 [Example 25, (S)-8-((2-amino-2,4-dimethylpentyl)oxy)-9-chloro-5-isopropyl-4-methylbenzo[c][1,7]naphthyridin-6(5H)-one] | 227 nM
Cc1nccc2c1[nH]c(=O)c1cc(OC[C@@](C)(N)CC(C)C)c(Cl)cc12 [Example 28, (S)-8-((2-amino-2,4-dimethylpentyl)oxy)-9-chloro-4-methylbenzo[c][1,7]naphthyridin-6(5H)-one] | 611 nM
CC(C)C[C@H](N)COc1ccc2c(c1)COc1cnccc1-2 [Example 29, (S)-1-((6H-isochromeno[3,4-c]pyridin-8-yl)oxy)-4-methylpentan-2-amine] | 13 nM
CC(C)C[C@H](N)COc1ccc2c(c1)C(C)Oc1cnccc1-2 (stereo partly drawn) [Example 30, (2S)-4-methyl-1-((6-methyl-6H-isochromeno[3,4-c]pyridin-8-yl)oxy)pentan-2-amine] | 17 nM
CC(C)C[C@H](N)COc1ccc2c(c1)C(C)(C)Oc1cnccc1-2 [Example 31, (S)-1-((6,6-dimethyl-6H-isochromeno[3,4-c]pyridin-8-yl)oxy)-4-methylpentan-2-amine] | 235 nM
CC(C)C[C@H](N)COc1ccc2c(c1)COc1cnc(N)cc1-2 [Example 35, (S)-8-((2-amino-4-methylpentyl)oxy)-6H-isochromeno[3,4-c]pyridin-2-amine] | 11 nM
CC(=O)Nc1cc2c(cn1)OCc1cc(OC[C@](C)(N)CC(C)C)ccc1-2 [Example 38, (R)—N-(8-((2-amino-2,4-dimethylpentyl)oxy)-6H-isochromeno[3,4-c]pyridin-2-yl)acetamide] | 7.7 nM
COC(=O)Nc1cc2c(cn1)OCc1cc(OCC(C)(N)CC(C)C)ccc1-2 (stereo not shown) [Example 39, methyl (8-((2-amino-2,4-dimethylpentyl)oxy)-6H-isochromeno[3,4-c]pyridin-2-yl)carbamate] | 8.1 nM
CC(C)CC(C)(N)COc1ccc2c(c1)COc1cnc(NCC(F)(F)F)cc1-2 (stereo not shown) [Example 42, 8-((2-amino-2,4-dimethylpentyl)oxy)-N-(2,2,2-trifluoroethyl)-6H-isochromeno[3,4-c]pyridin-2-amine] | 88 nM
CC(C)C[C@](C)(N)COc1ccc2c(c1)COc1cnc(NCC(F)(F)F)cc1-2 [Example 43, (S)-8-((2-amino-2,4-dimethylpentyl)oxy)-N-(2,2,2-trifluoroethyl)-6H-isochromeno[3,4-c]pyridin-2-amine] | 56 nM
CC(C)C[C@@](C)(N)COc1ccc2c(c1)COc1cnc(NCC(F)(F)F)cc1-2 [Example 44, (R)-8-((2-amino-2,4-dimethylpentyl)oxy)-N-(2,2,2-trifluoroethyl)-6H-isochromeno[3,4-c]pyridin-2-amine] | 181 nM
CCOC(=O)Nc1nc(Cl)c2c(c1Cl)-c1ccc(OC[C@@](C)(N)CC(C)C)cc1CO2 [Example 46, (S)-ethyl (8-((2-amino-2,4-dimethylpentyl)oxy)-1,4-dichloro-6H-isochromeno[3,4-c]pyridin-2-yl)carbamate] | 45 nM
CCOC(=O)Nc1ncc2c(c1Cl)-c1ccc(OC[C@@](C)(N)CC(C)C)cc1CO2 [Example 47, (S)-ethyl (8-((2-amino-2,4-dimethylpentyl)oxy)-1-chloro-6H-isochromeno[3,4-c]pyridin-2-yl)carbamate] | 26 nM
CC(C)C[C@](C)(N)COc1ccc2c(c1)COc1cnc(C(F)F)cc1-2 [Example 48, (S)-1-((2-(difluoromethyl)-6H-isochromeno[3,4-c]pyridin-8-yl)oxy)-2,4-dimethylpentan-2-amine] | 13 nM
Cc1nccc2c1OCc1cc(OC[C@@](C)(N)CC(C)C)ccc1-2 [Example 50, (S)-2,4-dimethyl-1-((4-methyl-6H-isochromeno[3,4-c]pyridin-8-yl)oxy)pentan-2-amine] | 11 nM
Cc1cc2c(cn1)OCc1cc(OC[C@@](C)(N)CC(C)C)ccc1-2 [Example 51, (S)-2,4-dimethyl-1-((2-methyl-6H-isochromeno[3,4-c]pyridin-8-yl)oxy)pentan-2-amine] | 121 nM

These reach a lower IC50. Values come first.

IC50 | Compound
5.4 nM | Cc1cc2c(cc1OC[C@@](C)(N)CC(C)C)c(=O)n(C)c1c(C)nccc21 [Example 26, (S)-8-((2-amino-2,4-dimethylpentyl)oxy)-4,5,9-trimethylbenzo[c][1,7]naphthyridin-6(5H)-one]
5.4 nM | COC(=O)Nc1cc2c(cn1)OCc1cc(OC[C@@](C)(N)CC(C)C)c(F)cc1-2 [Example 49, (S)-methyl (8-((2-amino-2,4-dimethylpentyl)oxy)-9-fluoro-6H-isochromeno[3,4-c]pyridin-2-yl)carbamate]
4.4 nM | CC(C)C[C@](C)(N)COc1ccc2c(c1)COc1cnc(N)cc1-2 [Example 53, (S)-8-((2-amino-2,4-dimethylpentyl)oxy)-6H-isochromeno[3,4-c]pyridin-2-amine]
4.1 nM | Cc1cc2c3ccc(OC[C@@](C)(N)CC(C)C)c(C)c3c(=O)n(C)c2cn1 [Example 20, (S)-8-((2-amino-2,4-dimethylpentyl)oxy)-2,5,7-trimethylbenzo[c][1,7]naphthyridin-6(5H)-one]
3.8 nM | COC(=O)Nc1cc2c(cn1)OCc1cc(OC[C@@H](N)CC(C)C)ccc1-2 [Example 34, (S)-methyl (8-((2-amino-4-methylpentyl)oxy)-6H-isochromeno[3,4-c]pyridin-2-yl)carbamate]
3.2 nM | [2H]C([2H])([2H])n1c(=O)c2cc(OC[C@@](C)(N)CC(C)C)c(Cl)cc2c2ccnc(C)c21 [Example 22, (S)-8-((2-amino-2,4-dimethylpentyl)oxy)-9-chloro-4-methyl-5-(trideuteromethyl)benzo[c][1,7]naphthyridin-6(5H)-one]
3.2 nM | Cc1cc2c(cc1OC[C@@H](N)CC(C)C)COc1cnccc1-2 [Example 32, (S)-4-methyl-1-((9-methyl-6H-isochromeno[3,4-c]pyridin-8-yl)oxy)pentan-2-amine]
3 nM | Cc1cc2c3ccc(OC[C@@](C)(N)CC(C)C)c(Cl)c3c(=O)n(C)c2cn1 [Example 18, (S)-8-((2-amino-2,4-dimethylpentyl)oxy)-7-chloro-2,5-dimethylbenzo[c][1,7]naphthyridin-6(5H)-one]
2.6 nM | CC(=O)Nc1cc2c(cn1)OCc1cc(OCC(C)(N)CC(C)C)ccc1-2 (stereo not shown) [Example 36, N-(8-((2-amino-2,4-dimethylpentyl)oxy)-6H-isochromeno[3,4-c]pyridin-2-yl)acetamide]
2.4 nM | CC(=O)Nc1cc2c(cn1)OCc1cc(OC[C@@](C)(N)CC(C)C)ccc1-2 [Example 37, (S)—N-(8-((2-amino-2,4-dimethylpentyl)oxy)-6H-isochromeno[3,4-c]pyridin-2-yl)acetamide]
2.2 nM | CC(C)C[C@](C)(N)COc1ccc2c(c1)COc1c-2ccnc1Cl [Example 52, (S)-1-((4-chloro-6H-isochromeno[3,4-c]pyridin-8-yl)oxy)-2,4-dimethylpentan-2-amine]
2.1 nM | CC(=O)Nc1cc2c(cn1)OCc1cc(OC[C@@H](N)CC(C)C)ccc1-2 [Example 33, (S)—N-(8-((2-amino-4-methylpentyl)oxy)-6H-isochromeno[3,4-c]pyridin-2-yl)acetamide]
2.1 nM | CC(C)C[C@](C)(N)COc1ccc2c(c1)COc1cnc(NC(=O)OC(C)C)cc1-2 [Example 54, (S)-isopropyl (8-((2-amino-2,4-dimethylpentyl)oxy)-6H-isochromeno[3,4-c]pyridin-2-yl)carbamate]
1.7 nM | Cc1nccc2c3cc(Cl)c(OC[C@@](C)(N)CC(C)C)cc3c(=O)n(C)c12 [Example 27, (S)-8-((2-amino-2,4-dimethylpentyl)oxy)-9-chloro-4,5-dimethylbenzo[c][1,7]naphthyridin-6(5H)-one]
1.3 nM | CCOC(=O)Nc1cc2c(cn1)OCc1cc(OC[C@](C)(N)CC(C)C)ccc1-2 [Example 40, (R)-ethyl (8-((2-amino-2,4-dimethylpentyl)oxy)-6H-isochromeno[3,4-c]pyridin-2-yl)carbamate]
0.91 nM | COC(=O)Nc1cc2c(cn1)OCc1c-2ccc(OC[C@@](C)(N)CC(C)C)c1F [Example 45, (S)-methyl (8-((2-amino-2,4-dimethylpentyl)oxy)-7-fluoro-6H-isochromeno[3,4-c]pyridin-2-yl)carbamate]
0.62 nM | CCOC(=O)Nc1cc2c(cn1)OCc1cc(OC[C@@](C)(N)CC(C)C)ccc1-2 [Example 41, (S)-ethyl (8-((2-amino-2,4-dimethylpentyl)oxy)-6H-isochromeno[3,4-c]pyridin-2-yl)carbamate]
